Tests used:
[1] = test system: PKB Ser473 phosphorylation in Rat1-myr-HA-p110 beta cells; test: Reverse protein array, PKB Ser473 phosphorylation in Rat1-myr-HA-p110 beta cells; type: cell-based; conditions: Rattus norvegicus, 0.5 h, 30 minutes compound incubation, read-out: p-PKB/IC50_beta
[2] = test system: PKB Ser473 phosphorylation in Rat1-myr-HA-p110 delta cells; test: Reverse protein array, PKB Ser473 phosphorylation in Rat1-myr-HA-p110 delta cells; type: cell-based; conditions: Rattus norvegicus, 0.5 h, 30 minutes compound incubation, read-out: p-PKB/IC50_delta

Compound | IC50 [1] | IC50 [2]
COc1cc(-c2ccc3ncc4c(c3c2)n(-c2ccc(N3CCC(OC)C3)nc2C)c(=O)n4C)cnc1CO (centres unmarked) [Example 28.3, 8-(6-Hydroxymethyl-5-methoxy-pyridin-3-yl)-1-[6-(3-methoxy-pyrrolidin-1-yl)-2-methyl-pyridin-3-yl]-3-methyl-1,3-dihydro-imidazo[4,5-c]quinolin-2-one] | 44.5 nM | 121 nM
Cc1nc(N2CCC(O)C2)ccc1-n1c(=O)n(C)c2cnc3ccc(-c4cnc(N)c(C(F)(F)F)c4)cc3c21 (centres unmarked) [Example 27.3, 8-(6-Amino-5-trifluoromethyl-pyridin-3-yl)-1-[6-(3-hydroxy-pyrrolidin-1-yl)-2-methyl-pyridin-3-yl]-3-methyl-1,3-dihydro-imidazo[4,5-c]quinolin-2-one] | 8.6 nM | 8.9 nM
COc1cc(-c2ccc3ncc4c(c3c2)n(-c2ccc(N3CC[C@H](O)C3)nc2C)c(=O)n4C)cnc1CO [Example 32.7, 8-(6-Hydroxymethyl-5-methoxy-pyridin-3-yl)-1-[6-((S)-3-hydroxy-pyrrolidin-1-yl)-2-methyl-pyridin-3-yl]-3-methyl-1,3-dihydro-imidazo[4,5-c]quinolin-2-one] | 200 nM | 178 nM
CCNc1cc(-c2ccc3ncc4c(c3c2)n(-c2ccc(N(C)CCO)nc2C)c(=O)n4C)cnc1CO [Example 26.3, 8-(5-Ethylamino-6-hydroxymethyl-pyridin-3-yl)-1-{6-[(2-hydroxy-ethyl)-methyl-amino]-2-methyl-pyridin-3-yl}-3-methyl-1,3-dihydro-imidazo[4,5-c]quinolin-2-one] | 6.9 nM | 12.8 nM
COc1cc(-c2ccc3ncc4c(c3c2)n(-c2ccc(N3CC(F)(F)C3)nc2C)c(=O)n4C)cnc1CO [Example 24.4, 1-[6-(3,3-Difluoro-azetidin-1-yl)-2-methyl-pyridin-3-yl]-8-(6-hydroxymethyl-5-methoxy-pyridin-3-yl)-3-methyl-1,3-dihydro-imidazo[4,5-c]quinolin-2-one] | 44.1 nM | 88.5 nM
COc1ccc(-n2c(=O)n(C)c3cnc4ccc(-c5cnc(CO)c(OC)c5)cc4c32)c(OC)n1 [Example 8.14, 1-(2,6-Dimethoxy-pyridin-3-yl)-8-(6-hydroxymethyl-5-methoxy-pyridin-3-yl)-3-methyl-1,3-dihydro-imidazo[4,5-c]quinolin-2-one] | 56.7 nM | 186 nM
CCNc1cc(-c2ccc3ncc4c(c3c2)n(-c2ccc(N3CC(F)(F)C(F)(F)C3)nc2C)c(=O)n4C)cnc1CO [Example 35.2, 8-(5-Ethylamino-6-hydroxymethyl-pyridin-3-yl)-3-methyl-1-[2-methyl-6-(3,3,4,4-tetrafluoro-pyrrolidin-1-yl)-pyridin-3-yl]-1,3-dihydro-imidazo[4,5-c]quinolin-2-one] | 5.27 nM | 16.3 nM
COCc1ncc(-c2ccc3ncc4c(c3c2)n(-c2ccc(F)nc2C)c(=O)n4C)cc1OC [Example 7.7, 1-(6-Fluoro-2-methyl-pyridin-3-yl)-8-(5-methoxy-6-methoxymethyl-pyridin-3-yl)-3-methyl-1,3-dihydro-imidazo[4,5-c]quinolin-2-one] | 278 nM | 598 nM
CNc1ncc(-c2ccc3ncc4c(c3c2)n(-c2ccc(N3CC[C@@H](O)C3)nc2C)c(=O)n4C)cn1 [Example 34.1, 1-[6-((R)-3-Hydroxy-pyrrolidin-1-yl)-2-methyl-pyridin-3-yl]-3-methyl-8-(2-methylamino-pyrimidin-5-yl)-1,3-dihydro-imidazo[4,5-c]quinolin-2-one] | 20 nM | 42 nM
Cc1nc(F)ccc1-n1c(=O)n(C)c2cnc3ccc(-c4cncc(N5CCC5)c4)cc3c21 [Example 7.6, 8-(5-Azetidin-1-yl-pyridin-3-yl)-1-(6-fluoro-2-methyl-pyridin-3-yl)-3-methyl-1,3-dihydro-imidazo[4,5-c]quinolin-2-one] | 22.8 nM | 119 nM
Cc1nc(N2CCC(O)C2)ccc1-n1c(=O)n(C)c2cnc3ccc(-c4cncc(C(C)(C)O)c4)cc3c21 (centres unmarked) [Example 27.5, 8-[5-(1-Hydroxy-1-methyl-ethyl)-pyridin-3-yl]-1-[6-(3-hydroxy-pyrrolidin-1-yl)-2-methyl-pyridin-3-yl]-3-methyl-1,3-dihydro-imidazo[4,5-c]quinolin-2-one] | 197 nM | 309 nM
COc1cc(-c2ccc3ncc4c(c3c2)n(-c2ccc(N)nc2C)c(=O)n4C)cnc1CO [Example 30.1, 1-(6-Amino-2-methyl-pyridin-3-yl)-8-(6-hydroxymethyl-5-methoxy-pyridin-3-yl)-3-methyl-1,3-dihydro-imidazo[4,5-c]quinolin-2-one] | 237 nM | 715 nM
COc1cc(-c2ccc3ncc4c(c3c2)n(-c2ccc(F)nc2C)c(=O)n4C)cnc1CO [Example 7.10, 1-(6-Fluoro-2-methyl-pyridin-3-yl)-8-(6-hydroxymethyl-5-methoxy-pyridin-3-yl)-3-methyl-1,3-dihydro-imidazo[4,5-c]quinolin-2-one] | 96.6 nM | 315 nM
COCc1ncc(-c2ccc3ncc4c(c3c2)n(-c2cccnc2C)c(=O)n4C)cc1OC [Example 2.30, 8-(5-Methoxy-6-methoxymethyl-pyridin-3-yl)-3-methyl-1-(2-methyl-pyridin-3-yl)-1,3-dihydro-imidazo[4,5-c]quinolin-2-one] | 139 nM | 336 nM
Cn1c(=O)n(-c2cccnc2F)c2c3cc(-c4cnc5[nH]ccc5c4)ccc3ncc21 [Example 6.3, 1-(2-Fluoro-pyridin-3-yl)-3-methyl-8-(1H-pyrrolo[2,3-b]pyridin-5-yl)-1,3-dihydro-imidazo[4,5-c]quinolin-2-one] | 14.1 nM | 43.2 nM
COc1ccc(-n2c(=O)n(C)c3cnc4ccc(-c5cnc(C(OC)OC)c(OC)c5)cc4c32)c(OC)n1 [Example 8.13, 8-(6-Dimethoxymethyl-5-methoxy-pyridin-3-yl)-1-(2,6-dimethoxy-pyridin-3-yl)-3-methyl-1,3-dihydro-imidazo[4,5-c]quinolin-2-one] | 212 nM | 599 nM
Cc1nc(N2CC(O)C2)ccc1-n1c(=O)n(C)c2cnc3ccc(-c4cncc(C(C)(C)O)c4)cc3c21 [Example 29.1, 1-[6-(3-Hydroxy-azetidin-1-yl)-2-methyl-pyridin-3-yl]-8-[5-(1-hydroxy-1-methyl-ethyl)-pyridin-3-yl]-3-methyl-1,3-dihydro-imidazo[4,5-c]quinolin-2-one] | 1100 nM | 350 nM
COc1ccc(-n2c(=O)n(C)c3cnc4ccc(-c5cncc(N6CCC6)c5)cc4c32)c(OC)n1 [Example 8.11, 8-(5-Azetidin-1-yl-pyridin-3-yl)-1-(2,6-dimethoxy-pyridin-3-yl)-3-methyl-1,3-dihydro-imidazo[4,5-c]quinolin-2-one] | 17.1 nM | 93.1 nM
CNc1ncc(-c2ccc3ncc4c(c3c2)n(-c2ccc(N3CCC(OC)C3)nc2C)c(=O)n4C)cn1 (centres unmarked) [Example 28.2, 1-[6-(3-Methoxy-pyrrolidin-1-yl)-2-methyl-pyridin-3-yl]-3-methyl-8-(2-methylamino-pyrimidin-5-yl)-1,3-dihydro-imidazo[4,5-c]quinolin-2-one] | 7.4 nM | 22.9 nM
COc1cc(-c2ccc3ncc4c(c3c2)n(-c2ccc(N3CCCC3)nc2C)c(=O)n4C)cnc1CO [Example 25.4, 8-(6-Hydroxymethyl-5-methoxy-pyridin-3-yl)-3-methyl-1-(2-methyl-6-pyrrolidin-1-yl-pyridin-3-yl)-1,3-dihydro-imidazo[4,5-c]quinolin-2-one] | 17.6 nM | 58.1 nM
CCNc1cc(-c2ccc3ncc4c(c3c2)n(-c2ccc(N3CCCC3)nc2C)c(=O)n4C)cnc1CO [Example 25.5, 8-(5-Ethylamino-6-hydroxymethyl-pyridin-3-yl)-3-methyl-1-(2-methyl-6-pyrrolidin-1-yl-pyridin-3-yl)-1,3-dihydro-imidazo[4,5-c]quinolin-2-one] | < 4.57 nM | 7.6 nM
CNc1ncc(-c2ccc3ncc4c(c3c2)n(-c2ccc(N3CC[C@H](O)C3)nc2C)c(=O)n4C)cc1Cl [Example 32.4, 8-(5-Chloro-6-methylamino-pyridin-3-yl)-1-[6-((S)-3-hydroxy-pyrrolidin-1-yl)-2-methyl-pyridin-3-yl]-3-methyl-1,3-dihydro-imidazo[4,5-c]quinolin-2-one] | 13 nM | 16 nM
CCOc1ccc(-c2ccc3ncc4c(c3c2)n(-c2ccc(N3CCC(O)C3)nc2C)c(=O)n4C)cn1 (centres unmarked) [Example 27.4, 8-(6-Ethoxy-pyridin-3-yl)-1-[6-(3-hydroxy-pyrrolidin-1-yl)-2-methyl-pyridin-3-yl]-3-methyl-1,3-dihydro-imidazo[4,5-c]quinolin-2-one] | 20.4 nM | 38.1 nM
Cc1ncccc1-n1c(=O)n(C)c2cnc3ccc(-c4cnc5[nH]ccc5c4)cc3c21 [Example 2.8, 3-Methyl-1-(2-methyl-pyridin-3-yl)-8-(1H-pyrrolo[2,3-b]pyridin-5-yl)-1,3-dihydro-imidazo[4,5-c]quinolin-2-one] | 9.49 nM | 13.8 nM
CNC(=O)c1ccc(-c2ccc3ncc4c(c3c2)n(-c2cccnc2C)c(=O)n4C)cc1 [Example 2.4, N-Methyl-4-[3-methyl-1-(2-methyl-pyridin-3-yl)-2-oxo-2,3-dihydro-1H-imidazo[4,5-c]quinolin-8-yl]-benzamide] | 14.8 nM | 29.1 nM
